The values below come from patent US20250129113A1, “NEW GLYCOSIDE COMPOUND AND PREPARATION PROCESS THEREOF” (SunIn Biotech Co., Ltd., priority 2023, published 2025).

In assay [1] the test system is full-skin wound in BKS.Cg-Dock7m+/+ Leprdb/Jnarl male mice. Kind of assay: Diabetic mice wound healing study. The assay is classed as in vivo. Particulars: Nusynside 0.23 mg, Day 17 after continuous administration, compared to Blank group. As to the method: BKS.Cg-Dock7m+/+ Leprdb/Jnarl male mice, an established diabetes model, were obtained from the National Applied Research Laboratories, Taiwan. The experiment was conducted when the mice were 6 to 7 weeks old. A full-skin wound of the same size with a diameter of about 6 mm was made on the left and right sides of each mouse's back.
Total 14 mice were randomly divided into 4 groups based on body weight: (i) Nusynside test group (administrated with Nusynside 0.23 mg) (n=4); (ii) Positive Control group (administrated with cream containing Centella Asiatica and Plectranthus amboinicus extract) (n=4); (iii) Vehicle Control group (administrated with ointment base) (n=3); (vi) Blank group (n=3). The animals underwent bilateral incisions and were housed individually in separate cages after the incisions, in the IVC housing system of the general SPF breeding area. Daily external cage observations were conducted by the animal caretakers. On the day of the incision and during follow-up photography, the body weight of the animals, wound appearance, and wound area were measured and recorded, except that the wound had healed resulting in it disable to be measured, the measurements were taken twice a week.

Assay [2] concerns Hs68 cells. Kind of assay: Cell proliferation assay (CCK-8), Hs68 cells. The format is cell-based, human. Particulars: 25 mM glucose, 24 hours, vs control group. As to the method:
(§1) Human Foreskin Fibroblast, Hs68 cells and human keratinocytes, HaCaT cells were cultured in Dulbecco's Modified Eagle Medium (DMEM) added with glucose and 10% fetal calf serum, and then the cells were put in a humidified incubator with an air of 5% carbon dioxide and 95% oxygen. The medium was changed every two days. The subculture was performed, and then treated with 0.25% trypsin (TRYPSIN-EDTA) mixture. Finally, the cells were collected and diluted at a ratio of 1:5 for re-culture. The cells used in the efficacy test had passage numbers ranging from 12 to 40.
The Hs68 cells were cultured in DMEM culture medium for 24 hours. The cell growth and survival status were analyzed with the CCK-8 reagent kit (DOJINDO MOLECULAR TECHNOLOGIES, KUMAMOTO, JAPAN). 10 μL CCK-8 solution to each cell culture was added and the cell culture was incubated at 37° C. for one hour, and then the cells were measured by the spectrophotometer MICROPLATE READER (THERMO LABSYSTEMS MULTISKAN RC) at 450 nm absorption, and the experimental results were analyzed by a comparison with the control group.

The test system of assay [3] is TNF-α gene expression in THP1 cells differentiated into M1-type macrophages. Kind of assay: Real-time PCR inflammatory gene expression assay, TNF-α. The format is cell-based, human. Particulars: 16 μM; THP1 differentiation into M1-type macrophages (LPS, IFN-γ); 25 mM glucose. How it is done: (§2) Human acute monocytic leukemia, THP1 cells were cultured in Roswell Park Memorial Institute (RPMI) 1640 medium added with 10% fetal calf serum, and then the cells were put in a humidified incubator at 37° C., and with an air of 5% carbon dioxide and 95% oxygen.
(§3) THP1 cells were treated with 100 ng/ml of phorbol 12-myristate 13-acetate (PMA) for 24 hours to induce activation. The following day, the medium was replaced with RPMI 1640 (25 mM Glucose, 10% FBS) and incubated for another 24 hours. The cells were then differentiated into M1 phase macrophages by switching to RPMI 1640 medium containing LPS (10 pg/ml) and IFN-γ (20 ng/ml), and into M2 phase macrophages using RPMI 1640 medium containing IL-4 (20 ng/ml) and IL-13 (20 ng/ml). During the 48-hour differentiation process, the test drug Nusynside (16 μM) was added. After 24 hours of differentiation, mRNA from M1 and M2 phase macrophages was extracted using the PROTECH Kit, and reverse transcription of mRNA into cDNA was performed with the Protech MMLV Reverse Transcription Kit. Gene expression was subsequently observed. According to the POWERTRACK SYBR dye protocol, the cDNA was mixed, and gene expression was analyzed using the StepOnePlus Real-Time PCR Systems to examine inflammatory gene expression when THP1 cells were differentiated into M1 and M2 phase macrophages in the presence of Nusynside (16 μM).

Assay [4] deals with IL-6 gene expression in THP1 cells differentiated into M1-type macrophages. The assay can be described thus: Real-time PCR inflammatory gene expression assay, IL-6. The assay is classed as cell-based, human. Particulars: 16 μM; THP1 differentiation into M1-type macrophages (LPS, IFN-γ); 25 mM glucose. As to the method: as §2, §3
The test system of assay [5] is HaCaT cells. The assay can be described thus: Cell proliferation assay (CCK-8), HaCaT cells. The assay is classed as cell-based, human. Particulars: 25 mM glucose, 48 hours, vs control group. How it is done: as §1
HaCaT cells at the number of 5×10^3 were cultured Culture in DMEM culture medium for 48 hours. The cell growth and survival status were analyzed with the CCK-8 reagent kit (DOJINDO MOLECULAR TECHNOLOGIES, KUMAMOTO, JAPAN). 10 μL CCK-8 solution was added to each cell culture and the cells were incubated at 37° C. for one hour, and then the cells were measured by the spectrophotometer MICROPLATE READER (THERMO LABSYSTEMS MULTISKAN RC) at 450 nm absorption, and the experimental results were analyzed by a comparison with the control group.

In the case of `CC1OC(OC2C(O)C(OCCc3ccc(O)c(O)c3)OC(CO)C2OC(=O)CCc2ccc(O)c(O)c2)C(O)C(O)C1O` (centres unmarked) [Nusynside], the wound healing rate result in assay [1] is reported as “significantly increased the wound healing rate”. Moreover, the “promotion of cell proliferation of Hs68 cells” value in assay [2] (16 μM) worked out at 9%; in assay [2] (32 μM) it was 12%. Further, in assay [3], the “expression of TNF-α gene” value is “significantly downregulated”. For the same molecule, the “expression of IL-6 gene” value in assay [4] is on record as “significantly downregulated”. In addition, the results for the “promotion of cell proliferation of HaCaT cells” value in assay [5] (3.2 μM), in assay [5] (16 μM) and in assay [5] (32 μM) were 12%, 17% and 14%, respectively.
